Test results as given in US20250074885A1, “CRYSTALLINE FREEBASE FORM OF 2-(4-CHLOROBENZYLAMINO)-4-(4-TERT-BUTYLAMINOPIPERIDIN-1-YL)-QUINOLINE AND USES THEREOF” (Genoscience Pharma, priority 2023, published 2025).
Where two headings read alike, the source gives them in different places. Blank lines part the entries; values can stand above or below the compound they belong to.

What was measured:
Type in all cases: physicochemical
[1] = Visual (apparent) solubility assessment in re-crystallization solvents; settings: for solubility: 20 °C, organic solvent or mixture, thermodynamic from solid, read-out: Estimated solubility
Description: Prior to launching the slurry experiments, an “apparent solubility” is determined in all ageing media. To do so, to accurately weighed small amounts of 2-(4-chlorobenzylamino)-4-(4-tert-butylaminopiperidin-1-yl)-quinoline, aliquots of each solvent are successively added until complete dissolution is observed. The corresponding solubility S is then estimated.

[2] = Dynamic water vapor sorption (DVS) analysis; settings: for Hygroscopicity: DVS; for Conversion into hydrated form: high relative humidity up to 95%
Description: The dynamic vapor sorption (DVS) analysis (gas water sorption) is performed on a DVS-Intrinsic incubator (SMS Ltd), equipped with DVS-Intrinsic Control Software 1.0.
The sample, placed in an aluminum basket holder, is submitted to a full-cycle analysis (sorption followed by desorption cycle) under the conditions described in Table 9.
The sample is first pre-dried under a stream of dry air until a stabilized sample mass is observed. Then, the relative humidity is increased by 5% increments. At each step, the sample mass is allowed to increase until equilibrium is reached (according to a given dm/dt target), and then a new relative humidity rise occurs. Relative humidity is ramped up to 95%. After equilibration at this point, desorption begins in a similar stepwise manner, with sample mass decrease again allowed to stabilize after each incremental humidity decrease.
With both segments of the above described method, the sample mass recording allows describing of the whole vapor water sorption/desorption behavior versus relative humidity.

[3] = Chemical stability of bulk powder under temperature and humidity stress (HPLC); settings: for Chemical stability as a bulk powder: at least 1 month at +40° C./75% RH and at +60° C.; for % of unchanged compound left (HPLC-UV at 323 nm): bulk powder, versus standard solutions
Description: (§1) The chemical and physical accelerated stability of crystalline form I (see example II) is studied in order to anticipate potential stability issues upon storage or ageing.
(§2) Crystalline form I powder is stored for 1 month at +40° C./75% RH and is also stored for 1 month at +60° C. (with % RH<10%).
The chemical stability is then assessed by chromatography by external standardization versus a freshly prepared (non-stressed crystalline form I) standard solution. For that purpose, three samples (exactly weighted) are stored for each condition.

[4] = Physical stability of bulk powder under temperature and humidity stress (XRPD, DSC, TGA); settings: for Physical stability as a bulk powder: at least 1 month at +40° C./75% HR and at +60° C.
Description: as §1, §2
The physical stability is also assessed by XRPD, DSC and TGA analyses by comparing the XRPD and thermal profiles of stressed samples to those of a non-stressed sample. For that purpose, one more sample is stored in each condition (respectively +40° C./75% RH and +60° C.).

[5] = Thermogravimetric analysis (TGA), thermal decomposition
Description: Thermogravimetric analysis is performed on a TA Instruments TGA Hi-Res 2950 apparatus equipped with an evolved gas analysis furnace. A ThermoNicolet Nexus FTIR bench, equipped with FTIR cell gas analysis, is coupled to TGA apparatus via a transfer line.
A sample is placed in an opened aluminum basket and analyzed according to conditions described in Table 6.

[6] = 1 month +40° C./75% RH and +60° C.

- solubility ([1]; Acetone, visual, 20-25° C.): > 16 mg/mL
- solubility ([1]; EtAc, visual, 20-25° C.): > 17.1 mg/mL
- solubility ([1]; EtOH, visual, 20-25° C.): > 9.8 mg/mL
- solubility ([1]; IPA, visual, 20-25° C.): > 2.6 mg/mL
- solubility ([1]; IPAC, visual, 20-25° C.): > 15.2 mg/mL
- solubility ([1]; MEK, visual, 20-25° C.): > 2.4 mg/mL
- solubility ([1]; Propanol-1, visual, 20-25° C.): > 15.1 mg/mL
Compound: CC(C)(C)NC1CCN(c2cc(NCc3ccc(Cl)cc3)nc3ccccc23)CC1 [2-(4-chlorobenzylamino)-4-(4-tert-butylaminopiperidin-1-yl)-quinoline]

- Solubility (grade in words) ([1]; Acetone, 20-25° C.): Medium
- Solubility (grade in words) ([1]; EtAc, 20-25° C.): Medium
- Solubility (grade in words) ([1]; EtOH, 20-25° C.): Medium
- Solubility (grade in words) ([1]; IPA, 20-25° C.): Low
- Solubility (grade in words) ([1]; IPAC, 20-25° C.): Medium
- Solubility (grade in words) ([1]; MEK, 20-25° C.): Low
- Solubility (grade in words) ([1]; Propanol-1, 20-25° C.): Medium
- Hygroscopicity ([2]; +25° C.): not hygroscopic at all
- Conversion into hydrated form [2]: does not convert into any hydrated form
- Chemical stability as a bulk powder [3]: chemically and physically stable
- Physical stability as a bulk powder [4]: chemically and physically stable
Compound: CC(C)(C)NC1CCN(c2cc(NCc3ccc(Cl)cc3)nc3ccccc23)CC1 [2-(4-chlorobenzylamino)-4-(4-tert-butylaminopiperidin-1-yl)-] [2-(4-chlorobenzylamino)-4-(4-tert-butylaminopiperidin-1-yl)-quinoline]

- Sample mass variation upon sorption ([2]; +25° C., 0% to 10% RH): no significant mass variation
- Hygroscopicity ([2]; +25° C.): non-hygroscopic at all
- Final sample mass lower than starting mass after desorption ([2]; +25° C., back to 0% RH, cycle 1, versus mass after pre-drying): 0.09%
- Hysteresis on loss of adsorbed water (desorption) ([2]; +25° C., between 95% and 65% RH): without hysteresis
- Mass loss during preliminary drying phase ([2]; +25° C./0% RH, before sorption): 0.12%
- Water uptake ([2]; +25° C./60% RH, sorption cycle 1): 0.09%
- Total water uptake ([2]; +25° C./95% RH, sorption cycle 1): 0.29%
- Conversion into hydrated form [2]: does not convert into any hydrated form
- % purity at 323 nm after stress ([3]; 1 month +40° C./75% RH): (% purity = 98.7% at 323 nm)
- Impurity profile compared to the standard profile (HPLC-UV at 323 nm, 252 nm and 203 nm) ([3]; 1 month +40° C./75% RH): No additional impurity
- % purity at 323 nm after stress ([3]; 1 month +60° C.): (% purity = 98.8% at 323 nm)
- Impurity profile compared to the standard profile (HPLC-UV at 323 nm, 252 nm and 203 nm) ([3]; 1 month +60° C.): No additional impurity
- Chemical stability as a bulk powder [3]: chemically stable
- % of unchanged compound left (HPLC-UV at 323 nm) ([3]; 1 month +40° C./75% RH): 99.7%
- % of unchanged compound left (HPLC-UV at 323 nm) ([3]; 1 month +60° C.): 100.5%
- TOnset of main thermal decomposition (TGA) ([5]; non-stressed sample (initial analysis)): +333 °C
- Mass loss before the main thermal decomposition (TGA) ([5]; non-stressed sample, upon heating): no mass loss is detected
- XRPD results ([4]; 1 month +40° C./75% HR): Diffractogram comparable to the initial
- TOnset of main thermal decomposition (TGA) ([4]; 1 month +40° C./75% RH): +333 °C
- TGA difference between stressed samples and initial physical form [4, 6]: No difference
- XRPD pattern difference between stressed samples and initial physical form [4, 6]: No XRPD pattern difference
- TOnset of main thermal decomposition (TGA) ([4]; 1 month +60° C.): +334 °C
- XRPD results ([4]; 1 month +60° C.): Diffractogram comparable to the initial
- Physical stability as a bulk powder [4]: physically stable
- DSC profile difference between stressed samples and initial physical form ([4]; stored at +40° C./75% RH and at +60° C.): No DSC profile difference
Compound: CC(C)(C)NC1CCN(c2cc(NCc3ccc(Cl)cc3)nc3ccccc23)CC1 [Crystalline Form I, 2-(4-chlorobenzylamino)-4-(4-tert-butylaminopiperidin-1-yl)-quinoline]
